In article PMC8197361, “Assessing the Interactions of Statins with Human Adenylate Kinase Isoenzyme 1: Fluorescence and Enzyme Kinetic Studies” (International Journal of Molecular Sciences, 2021):
Like-named read-outs stand apart in the source and are kept apart here.

Legend:
[1] = target: T1, human adenylate kinase isoenzyme 1 (hAK1) (Homo sapiens, UniProt P00568); test: Fluorescence quenching of hAK1 intrinsic (tyrosine) fluorescence by statins, one-site binding model; conditions: read-out: Kd (dissociation constant)
T1 construct: thrombin recognition site (C); 6xHis-tag (C); made in house; host or cells: E. coli BL21-CodonPlus(DE3)-RIL, pET-3a(+)
T1 sequence (P00568 1-194): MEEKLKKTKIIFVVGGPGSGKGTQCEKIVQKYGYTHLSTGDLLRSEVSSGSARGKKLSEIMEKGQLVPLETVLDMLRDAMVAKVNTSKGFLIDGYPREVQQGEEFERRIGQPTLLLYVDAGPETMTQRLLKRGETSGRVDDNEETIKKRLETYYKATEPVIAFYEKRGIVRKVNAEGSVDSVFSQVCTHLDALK
Description: The fluorescence emission spectra and plots of F versus [L] for the hAK1 quenching process at 20 and 25 °C are presented in Figure S2, while the emission spectra of hAK1, buffer (HEPES-NaOH) and five statins are shown in Figure S3. To analyze the quenching data upon the formation of an hAK1-statin complex, we used the following equation, which assumes a 1:1 stoichiomery:(1) PL/Pt=Pt+La+Kd−(Pt+La+Kd)^2−4PtLa/2Pt where Kd is the dissociation constant, [P]t is the concentration of protein, [L]a is the total concentration of the ligand, and [PL] it the concentration of protein-ligand complex.
The obtained fluorescence data were fitted to the one-site binding model with an applied nonlinear least-squares regression using OriginPro software (Figure 3).
Measurements were recorded in the range of 300–600 nm after excitation at λ = 289 nm at 20, 25 and 37 °C. Stock solutions of all statins were prepared in ethanol. The samples were prepared in 2 mL Eppendorf tubes and contained hAK1 at a concentration of 2 µM alone or with a statin at the following concentrations: 2, 4, 8, 16, 24, 32 and 40 µM, and 25 mM HEPES-NaOH (pH 7.5) was added to each tube, up to 2 mL. Then, the sample was transferred into the quartz cell and the spectrum was recorded. The emission spectra were measured three times. The fluorescence spectra of hAK1 in presence of statins were corrected for the inner filter effect using the following equation [63, 64]:(2) Fcor=Fobs∗ 10^AλEx+AλEm/2 where Fcor is the corrected fluorescence intensity and Fobs is the observed fluorescence intensity, AλEx is the absorption value at the excitation wavelength and AλEm is the absorption value at the emission wavelength. The fluorescence data were fitted by applying a nonlinear least-squares regression using OriginPro software Version 2016 (OriginLab Corporation, Northampton, MA, USA).

[2] = target: T1, human adenylate kinase isoenzyme 1 (hAK1); test: Adenylate kinase activity assay and enzyme inhibition studies (RP-HPLC), hAK1; type: biochemical; conditions: for IC50: 37 °C
Description: The reaction mixture for ATP synthesis contained 2 mM MgCl2, 1 mM ADP in 10 mM HEPES-NaOH, pH 7.5. The reaction mixture for ADP synthesis was composed of 2 mM MgCl2, 1 mM AMP and ATP each, in 10 mM HEPES-NaOH, pH 7.5. […] Studies on the statin inhibition mode were performed using varying concentrations of ADP as a substrate (from 0.2 to 1.0 mM) at different fixed concentrations of statin (0, 150, 300 and 450 µM). Adenylate kinase activity measurement was carried out in 50 μL of the reaction mixture for 5–10 min at 37 °C. The reaction was terminated by the addition of 50 μL of 1 M HClO4. After 5 min incubation on ice, samples were centrifuged at 15,000× g for 5 min at 4 °C. Then, 50 μL of the obtained supernatant was neutralized with 25 μL of 1 M KOH and delipidated by shaking with n-heptane (1:5 v/v). The samples were centrifuged as above, and subsequently, adenine nucleotide concentrations were analyzed by the RP-HPLC (reversed-phase high-performance liquid chromatography) method as previously described. Briefly, purine nucleotides were separated in isocratic conditions on the Chromolith Performance RP-18e column, 4.6 mm × 100 mm (Merck, Darmstadt, Germany) using the Shimadzu Prominence LC (Kyoto, Japan) equipped with pump (LC-20AD), autosampler (SIL-20AC), column thermostat (CTO-10AS) and photodiode array detector (SPD-M20A). HPLC system control, data acquisitions and processing were done with LabSolutions software. The samples were eluted using 0.1 M phosphate buffer, pH 7.0 containing 25 mM TBA, 5 mM EDTA and 3% methanol. ADP and ATP produced during the AK-catalyzed reaction were detected at λ = 260 nm based on the retention times of standard nucleotide solutions. The AK enzymatic activity was determined by quantifying the product concentration using correlation coefficients calculated from ADP and ATP calibration curves. One unit (U) of AK activity is defined as the amount of the enzyme that catalyzes the production of 1.0 μmole of ADP or ATP per minute at 37 °C, under the assay conditions specified above. The specific activity of AK was calculated as the number of units per milligram of protein. The Lineweaver–Burk plot was used to present enzyme-substrate reactions with and without statin, where the y-intercept is equivalent to the inverse of Vmax and the x-intercept represents −1/KM. The calculation of the IC50 values was performed using GraphPad Prism 8 Software (San Diego, CA, USA).

[3] = target: T2, adenylate kinase from Geobacillus stearothermophilus (AKst) (Geobacillus stearothermophilus, UniProt P27142); test: Adenylate kinase activity assay in the presence of statins, AKst (long type AK); type: biochemical; conditions: same drug concentration range as in hAK1 experiments; ADP or ATP and AMP as substrates, 1 mM each
T2 construct: made in house; host or cells: E. coli BL21-CodonPlus(DE3)-RIL, pET-3a(+)
Description: Next, we measured the enzymatic activity of AKst in the presence of RVS and SVS at the same drug concentration range as in the hAK1 experiments (Figure S4). […] This region has limited accessibility in AKst due to the presence of a markedly bigger LID domain as compared to hAK1, which may consequently prevent the binding of statins to AKst.
The reaction mixture for ATP synthesis contained 2 mM MgCl2, 1 mM ADP in 10 mM HEPES-NaOH, pH 7.5. The reaction mixture for ADP synthesis was composed of 2 mM MgCl2, 1 mM AMP and ATP each, in 10 mM HEPES-NaOH, pH 7.5. […] Studies on the statin inhibition mode were performed using varying concentrations of ADP as a substrate (from 0.2 to 1.0 mM) at different fixed concentrations of statin (0, 150, 300 and 450 µM). […] The samples were centrifuged as above, and subsequently, adenine nucleotide concentrations were analyzed by the RP-HPLC (reversed-phase high-performance liquid chromatography) method as previously described. […] ADP and ATP produced during the AK-catalyzed reaction were detected at λ = 260 nm based on the retention times of standard nucleotide solutions. The AK enzymatic activity was determined by quantifying the product concentration using correlation coefficients calculated from ADP and ATP calibration curves. […] The specific activity of AK was calculated as the number of units per milligram of protein. […]

[4] = tested on: serum AK; parameters: method as in PMID 18576946; conditions: 0.5 mM AMP and 0.8 mM ATP as substrates; cited from earlier work
[5] = tested on: endothelial cell-surface AK; parameters: method as in PMID 18576946; conditions: 0.5 mM AMP and 0.8 mM ATP as substrates; cited from earlier work
[6] = 20 °C, 2 µM hAK1, 25 mM HEPES-NaOH pH 7.5
[7] = 25 °C, 2 µM hAK1, 25 mM HEPES-NaOH pH 7.5
[8] = 37 °C, 2 µM hAK1, 25 mM HEPES-NaOH pH 7.5
[9] = 1 mM ADP, ATP synthesis direction, read-out: IC50 (ADP as a Substrate)
[10] = 1 mM AMP and ATP each, ADP synthesis direction, read-out: IC50 (ATP + AMP as Substrates)

T2 sequence (P27142 whole entry): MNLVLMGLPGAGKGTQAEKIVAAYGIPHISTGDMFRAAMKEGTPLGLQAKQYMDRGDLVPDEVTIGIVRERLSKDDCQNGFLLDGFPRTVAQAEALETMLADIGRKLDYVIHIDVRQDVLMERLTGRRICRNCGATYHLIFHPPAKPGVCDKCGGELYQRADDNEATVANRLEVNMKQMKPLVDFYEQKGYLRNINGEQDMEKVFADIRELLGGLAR

SMILES | Kd [1, 6] [µM] | Kd [1, 7] [µM] | Kd [1, 8] [µM] | IC50 [2, 9] [µM] | IC50 [2, 10] [µM] | IC50 ([2]; ADP or ATP + AMP as substrates, read-out: IC50 values in both directions of the hAK1-catalyzed reaction) [µM] | hAK1 inhibition mode (Lineweaver-Burk plot) ([2]; ADP 0.2 to 1.0 mM, fixed statin concentrations 0, 150, 300 and 450 µM) | hAK1 inhibition ([2]; RVS at a concentration above 200 μM) [%] | Effect on the AKst enzymatic activity [3] | IC50 [4] [µM] | IC50 [5] [µM] | Kd ([1]; 37 °C) [µM]
CC(C)c1nc(N(C)S(C)(=O)=O)nc(-c2ccc(F)cc2)c1/C=C/[C@@H](O)C[C@@H](O)CC(=O)O [RVS, Rosuvastatin] | 9.2 ± 1.5 | 16.8 ± 1.8 | 18.9 ± 3.2 | 166 ± 20 | 89 ± 15 |  | noncompetitive | 90 | not found any inhibitory effect |  |  | 
Nc1ncnc2c1ncn2[C@@H]1O[C@H](COP(=O)(O)OP(=O)(O)OP(=O)(O)OP(=O)(O)OP(=O)(O)OC[C@H]2O[C@@H](n3cnc4c(N)ncnc43)[C@H](O)[C@@H]2O)[C@@H](O)[C@H]1O [Ap5A, P^1,P^5-di(adenosine-5′)pentaphosphate] |  |  |  |  |  |  |  |  |  | 6.3 | 6 | 
CCC(C)(C)C(=O)O[C@H]1C[C@@H](C)C=C2C=C[C@H](C)[C@H](CC[C@@H]3C[C@@H](O)CC(=O)O3)[C@H]21 [SVS, Simvastatin] | 6.6 ± 1.2 | 10.9 ± 1.6 | 15.2 ± 2 | 5.5 ± 1.2 | 3.1 ± 0.5 |  |  |  | not found any inhibitory effect |  |  | 15.2 ± 2

Further lines, with some results ahead:

Kd [1, 6] [µM] | Kd [1, 7] [µM] | Kd [1, 8] [µM] | IC50 [2, 9] [µM] | IC50 [2, 10] [µM] | IC50 ([2]; ADP or ATP + AMP as substrates, read-out: IC50 values in both directions of the hAK1-catalyzed reaction) [µM] | SMILES | hAK1 inhibition mode (Lineweaver-Burk plot) ([2]; ADP 0.2 to 1.0 mM, fixed statin concentrations 0, 150, 300 and 450 µM) | hAK1 inhibition ([2]; RVS at a concentration above 200 μM) [%] | Effect on the AKst enzymatic activity [3] | IC50 [4] [µM] | IC50 [5] [µM] | Kd ([1]; 37 °C) [µM]
16 ± 2.1 | 27.2 ± 6.8 | 29.5 ± 3.7 | 223 ± 34 | 237 ± 31 | > 200 | CC(C)c1c(C(=O)Nc2ccccc2)c(-c2ccccc2)c(-c2ccc(F)cc2)n1CC[C@@H](O)C[C@@H](O)CC(=O)O [AVS, Atorvastatin] |  |  |  |  |  | 
17.4 ± 2 | 23.1 ± 4 | 26.6 ± 5.5 | 126 ± 7 | 156 ± 11 |  | CC(C)n1c(/C=C/C(O)CC(O)CC(=O)O)c(-c2ccc(F)cc2)c2ccccc21 (stereo not drawn) [FVS, Fluvastatin] |  |  |  |  |  | 
19.4 ± 4.1 | 26.4 ± 6.2 | 28.6 ± 8.2 | 95 ± 19 | 211 ± 33 |  | CC[C@H](C)C(=O)O[C@H]1C[C@H](O)C=C2C=C[C@H](C)[C@H](CC[C@@H](O)C[C@@H](O)CC(=O)O)[C@H]21 [PVS, Pravastatin] |  |  |  |  |  | 
